Holding throughout (assay): DTP human tumour cell line panel, 48 h
Assay [1] concerns ACHN.
Assay [2] deals with HCT-15.
Assay [3] concerns M14.
Assay [4] concerns RPMI-8226.
Assay [5] deals with UACC-62.
Assay [6] concerns NCI-H522.
Assay [7] concerns KM12.
In assay [8] the test system is HT-29.
Assay [9] has as its system OVCAR-8.
Assay [10] deals with CAKI-1.
Assay [11] deals with SK-OV-3.
Assay [12] deals with SK-MEL-5.
In assay [13] the test system is SW-620.
For assay [14], the system named is LOX IMVI.
Assay [15] deals with OVCAR-4.
Assay [16] relates to EKVX.
Assay [17] concerns HCC 2998.
Assay [18] deals with SF-268.
Assay [19] deals with KM-20L2.

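Step 1: Grow cells in 96-well plates. Step 2: Expose to compound for 48 hours at 5 concentrations. Step 3: Interpolate endpoints linearly; if unreached, use highest concentration. Here, GI50 denotes the concentration required for 50% inhibition of growth.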 Calls of active or inactive are those of the source. Cut-off read from the data, not from the text of the source: active = GI50 up to about 1.1 µM and inactive = higher.

`COc1cc(C2c3cc4c(cc3CC3COC(=O)N32)OCO4)cc(OC)c1OC` (configuration not stated): the GI50 (usually the concentration giving 50% growth inhibition) is 12.8 µM (inactive) in [1]; 3.08 µM in assay [2]; 3.37 µM (inactive) in [3]; 3.13 µM (inactive) in [4]; 2.61 µM (inactive) in assay [5]; 1570 nM (inactive) in [6]. Further, the GI50 in assay [7] was 2440 nM (inactive); in assay [8], 2120 nM (inactive); in assay [9], 4.03 µM (inactive); in [10] it was 3.65 µM (inactive); in assay [11], 3.03 µM (inactive); in assay [12], 1.96 µM (inactive). Moreover, the GI50 in assay [13] is 2130 nM (inactive); in assay [14], 3140 nM (inactive); in [15], 14.1 µM (inactive); in [16], 4.76 µM (inactive); in assay [17], 2.93 µM (inactive); in assay [18], 8.04 µM (inactive).
As to `Cc1nc2c(O)c3c(c(O)c2nc1C)C1C=CC3CC1`, the GI50 in assay [1] is 11.2 µM (inactive); in [2], 17.1 µM; in assay [3] it was 15.3 µM (inactive); in [4], 2.92 µM (inactive); in assay [5], 21.2 µM (inactive); in assay [6], 16000 nM (inactive). In addition, the GI50 is 15700 nM (inactive) in assay [7]; 21400 nM (inactive) in [8]; 7.45 µM (inactive) in assay [9]; 7.57 µM (inactive) in assay [10]; 22 µM (inactive) in assay [11]; 14 µM (inactive) in assay [12]. In addition, the GI50 in [13] is 12400 nM (inactive); in [14], 3530 nM (inactive); in [15], 3.06 µM (inactive); in assay [16], 11 µM (inactive); in assay [17] it was > 40.2 µM (inactive); in assay [18] it was 10.4 µM (inactive).
Turning to `OCC1OC(n2cnc3c(SCc4ccccc4)ncnc32)C(O)C1O` (configuration not stated), the GI50 is 4.24 µM (inactive) in [1]; 3.25 µM in [2]; 99.3 µM (inactive) in [3]; 19.4 µM (inactive) in assay [4]; 98.9 µM (inactive) in [5]; 17500 nM (inactive) in assay [6]. Further, the GI50 in assay [7] is > 100000 nM (inactive); in assay [8], 5520 nM (inactive); in assay [9], 1.04 µM (active); in assay [10], 6.53 µM (inactive); in [11], > 89.3 µM (inactive); in assay [12], > 100 µM (inactive). Besides, the GI50 in [13] is 21600 nM (inactive); in assay [14], 2130 nM (inactive); in assay [15], 11.8 µM (inactive); in [16], > 68.5 µM (inactive); in [17] it was 8.24 µM (inactive); in assay [18], 21.2 µM (inactive).
`CCOP1(=O)CC(C)=C(Cl)C(O)C1` (configuration not stated): the GI50 was > 100 µM (inactive) in assay [1]; above 100 µM in assay [2]; > 100 µM (inactive) in [3]; > 100 µM (inactive) in assay [4]; > 100 µM (inactive) in assay [5]; > 100000 nM (inactive) in assay [6]. The GI50 in assay [7] was > 100000 nM (inactive); in assay [8] it was > 100000 nM (inactive); in assay [9], > 100 µM (inactive); in assay [10], > 100 µM (inactive); in assay [11] it was > 100 µM (inactive); in [12], > 100 µM (inactive). For the same molecule, the GI50 in assay [13] was > 100000 nM (inactive); in assay [14], > 100000 nM (inactive); in assay [15], > 100 µM (inactive); in assay [16], > 100 µM (inactive); in [17] it was > 100 µM (inactive); in [18], > 100 µM (inactive).
For `[O-]c1c2cc(-[n+]3c(-c4ccccc4)cc(-c4ccccc4)cc3-c3ccccc3)cc1CO[C@@H](c1ccccc1)[C@H](c1ccccc1)OCc1cccc(n1)CO[C@@H](c1ccccc1)[C@H](c1ccccc1)OC2`, the GI50 in assay [1] is 0.304 µM (active); in [2] it was 0.74 µM; in [3], 0.161 µM (active); in assay [4], 0.0135 µM (active); in assay [5], 0.0931 µM (active); in [6], 35.3 nM (active). Further, the GI50 in [7] is 38.3 nM (active); in assay [8], 31.8 nM (active); in assay [9] it was 0.0488 µM (active); in assay [10], 0.367 µM (active); in assay [11], 0.0775 µM (active); in assay [12], 0.0424 µM (active). In addition, the 50% growth inhibitory concentration (GI50) in assay [13] was 56.8 nM (active); in [14], 49.8 nM (active); in assay [15], 0.09 µM (active); in assay [16], 0.0838 µM (active); in assay [17], 0.453 µM (active); in assay [18], 0.0689 µM (active).
As for `CCOC(=O)CN1C(=O)c2ccc(NC(=O)C(=O)O)cc2S1(=O)=O`, the GI50 in [1] is > 100 µM (inactive); in assay [2], above 100 µM; in [3] it was > 100 µM (inactive); in assay [4] it was > 100 µM (inactive); in assay [5] it was > 100 µM (inactive); in assay [6], > 100000 nM (inactive). In addition, the GI50 was > 100000 nM (inactive) in [7]; > 100000 nM (inactive) in [8]; > 100 µM (inactive) in assay [9]; > 100 µM (inactive) in [10]; > 100 µM (inactive) in assay [11]; > 100 µM (inactive) in [12]. The GI50 in [13] was > 100000 nM (inactive); in assay [14], > 100000 nM (inactive); in assay [15] it was > 100 µM (inactive); in assay [16] it was > 100 µM (inactive); in assay [17] it was > 100 µM (inactive); in assay [18], > 100 µM (inactive).
For the molecule `CCCC(=O)Nc1cc(/C=C/C(=O)N2CC(CCl)c3c2cc(OC(C)=O)c2[nH]cc(C)c32)n(C)c1` (configuration not stated), the GI50 in assay [1] was < 2.5e-05 µM (active); in assay [2], 0.000547 µM; in assay [3], 5.38e-05 µM (active); in [4], 0.000171 µM (active); in [5] it was < 2.5e-05 µM (active); in [6], < 0.025 nM (active). Besides, the GI50 in assay [7] is 0.0873 nM (active); in assay [8], 0.0549 nM (active); in assay [9], < 2.5e-05 µM (active); in [10] it was 7.66e-05 µM (active); in assay [11], 7.05e-05 µM (active); in assay [12], < 2.5e-05 µM (active). For the same molecule, the GI50 is 0.0296 nM (active) in assay [13]; < 0.025 nM (active) in [14]; < 2.5e-05 µM (active) in assay [15]; 0.000108 µM (active) in assay [16]; < 2.5e-05 µM (active) in assay [17]; < 2.5e-05 µM (active) in [18].
`COc1ccc(CC2c3cc(Oc4cc(CC5c6cc(OC)c(OC)cc6CCN5C)ccc4O)c(OC)cc3CCN2C)cc1` (configuration not stated): the GI50 in assay [1] was 7.01 µM (inactive); in [2], 2.17 µM; in assay [3], 5.64 µM (inactive); in assay [4], 2.44 µM (inactive); in assay [5], 8.65 µM (inactive); in assay [6], 6810 nM (inactive). For the same molecule, the GI50 is 1770 nM (inactive) in assay [7]; 2060 nM (inactive) in assay [8]; 5.96 µM (inactive) in assay [9]; 1.48 µM (inactive) in assay [10]; 9.29 µM (inactive) in [11]; 7.6 µM (inactive) in assay [12]. The GI50 in [13] was 1660 nM (inactive); in assay [14] it was 2550 nM (inactive); in [15], 2.42 µM (inactive); in assay [16], 8.65 µM (inactive); in [17] it was 1.14 µM (inactive); in [18], 9.14 µM (inactive).
Regarding `CN(C)CC/C(=N\Nc1ccc(Cl)cc1)c1ccccc1`, the concentration for 50% growth inhibition (GI50) in assay [1] was 0.478 µM (active); in [2] it was 0.327 µM; in assay [3], 1.67 µM (inactive); in [4] it was 0.64 µM (active); in assay [5], 0.556 µM (active); in assay [6], 1320 nM (inactive). For the same molecule, the 50% growth inhibitory concentration (GI50) is 589 nM (active) in assay [7]; 1280 nM (inactive) in assay [8]; 2.24 µM (inactive) in assay [9]; 2.22 µM (inactive) in assay [11]; 1.7 µM (inactive) in assay [12]; 0.176 µM (active) in assay [19]. Besides, the concentration for 50% growth inhibition (GI50) in assay [13] was 431 nM (active); in assay [14], 256 nM (active); in assay [15], 1.77 µM (inactive); in assay [16], 1.36 µM (inactive); in assay [18], 0.566 µM (active).
For the molecule `COc1ccc(NC/C=C/C(=C/COC(C)=O)OC(C)=O)cc1`, the GI50 in [1] was 1.73 µM (inactive); in [2], 2.41 µM; in assay [3], 1.73 µM (inactive); in assay [4], 0.252 µM (active); in [5] it was 3.82 µM (inactive); in assay [6], 2720 nM (inactive). For the same molecule, the GI50 is 448 nM (active) in [7]; 2190 nM (inactive) in assay [8]; 4.23 µM (inactive) in assay [9]; 1.89 µM (inactive) in assay [10]; 14.9 µM (inactive) in assay [11]; 15.3 µM (inactive) in [12]. Further, the GI50 is 1690 nM (inactive) in assay [13]; 2130 nM (inactive) in assay [14]; 1.82 µM (inactive) in assay [15]; 2.03 µM (inactive) in [16]; 3.03 µM (inactive) in assay [17]; 2.52 µM (inactive) in assay [18].
With `Cc1ccc2c3ccc4c(c3n(C)c2c1)C(=O)C=CC4=O`, the GI50 in assay [1] is 3.51 µM (inactive); in [2], 4.6 µM; in assay [3], 3.66 µM (inactive); in assay [4] it was 2.39 µM (inactive); in assay [5], > 8.22 µM (inactive); in [6] it was 2950 nM (inactive). Besides, the GI50 in assay [7] was > 10000 nM (inactive); in [8] it was > 10000 nM (inactive); in [9], 4.47 µM (inactive); in assay [10], 3.36 µM (inactive); in [11] it was > 10 µM (inactive); in assay [12], > 10 µM (inactive). Moreover, the GI50 in [13] was 1740 nM (inactive); in assay [14], > 10000 nM (inactive); in assay [15] it was > 5.12 µM (inactive); in assay [16], > 10 µM (inactive); in assay [17], > 10 µM (inactive); in assay [18], > 10 µM (inactive).
